Experimental data reported in PubChem BioAssay (NCI).
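A five-concentration, 48-hour dose response in 96-well plates underlies each endpoint, interpolated linearly between surrounding concentrations. GI50: concentration for 50% inhibition of growth. TGI is the concentration that stops growth completely.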

Experiments:
Test in all cases: NCI-60 cell line screen, 48 h; in the data active means GI50 below about 0.43 µM; inactive means the rest
HL-60(TB) leukemia = system: HL-60(TB) leukemia
COLO 205 colon = system: COLO 205 colon
IGROV1 ovarian = system: IGROV1 ovarian
UACC-62 melanoma = system: UACC-62 melanoma
HCT-116 colon = system: HCT-116 colon
SK-OV-3 ovarian = system: SK-OV-3 ovarian
OVCAR-8 ovarian = system: OVCAR-8 ovarian
OVCAR-4 ovarian = system: OVCAR-4 ovarian
CAKI-1 renal = system: CAKI-1 renal
LOX IMVI melanoma = system: LOX IMVI melanoma
786-0 renal = system: 786-0 renal
EKVX NSCLC = system: EKVX NSCLC
PC-3 prostate = system: PC-3 prostate
MDA-N = system: MDA-N
SR leukemia = system: SR leukemia

Cc1ccc(N2C(=O)/C(=c3\s/c(=C(/N)O)c(=N)n3-c3ccccc3)SC2=S)cc1
> 100 µM: TGI (HL-60(TB) leukemia) | TGI (COLO 205 colon) | TGI (IGROV1 ovarian) | TGI (UACC-62 melanoma) | TGI (HCT-116 colon) | TGI (SK-OV-3 ovarian) | TGI (OVCAR-8 ovarian)

CCCCCCCCCCCCCCCCCC(=O)NCCCNCCCNC(=O)CCCCCCCCCCCCCCCCC
> 100 µM: TGI (OVCAR-4 ovarian) | TGI (HL-60(TB) leukemia) | TGI (COLO 205 colon) | TGI (CAKI-1 renal) | TGI (IGROV1 ovarian) | TGI (LOX IMVI melanoma) | TGI (UACC-62 melanoma) | TGI (HCT-116 colon) | TGI (SK-OV-3 ovarian) | TGI (786-0 renal) | TGI (OVCAR-8 ovarian)

Cc1[nH]n(-c2ccccc2)c(=S)c1C(=O)c1ccccc1
> 100 µM: TGI (OVCAR-4 ovarian) | TGI (HL-60(TB) leukemia) | TGI (COLO 205 colon) | TGI (CAKI-1 renal) | TGI (IGROV1 ovarian) | TGI (LOX IMVI melanoma) | TGI (UACC-62 melanoma) | TGI (SK-OV-3 ovarian) | TGI (OVCAR-8 ovarian)
54.9 µM: TGI (EKVX NSCLC)

O=[N+]([O-])c1cc(Cl)ccc1S(=O)(=O)c1ccccc1
> 100 µM: TGI (OVCAR-4 ovarian) | TGI (HL-60(TB) leukemia) | TGI (COLO 205 colon) | TGI (EKVX NSCLC) | TGI (CAKI-1 renal) | TGI (IGROV1 ovarian) | TGI (LOX IMVI melanoma) | TGI (UACC-62 melanoma) | TGI (PC-3 prostate) | TGI (HCT-116 colon) | TGI (SK-OV-3 ovarian) | TGI (786-0 renal) | TGI (OVCAR-8 ovarian)

COc1cc2cc(C(=O)N3CC(COS(C)(=O)=O)c4c3cc([N+](=O)[O-])c3ccccc43)[nH]c2c(OC)c1OC (stereo not given)
> 100 µM: TGI (COLO 205 colon) | TGI (LOX IMVI melanoma) | TGI (MDA-N) | TGI (SK-OV-3 ovarian)
> 50 µM: TGI (CAKI-1 renal)
15.6 µM: TGI (HCT-116 colon)
> 31.6 µM: TGI (OVCAR-4 ovarian) | TGI (EKVX NSCLC) | TGI (IGROV1 ovarian) | TGI (UACC-62 melanoma) | TGI (PC-3 prostate) | TGI (OVCAR-8 ovarian)

CCOc1ccc(N=Cc2cc(OC)c(OC)c(OC)c2)cc1
> 100 µM: TGI (OVCAR-4 ovarian) | TGI (HL-60(TB) leukemia) | TGI (COLO 205 colon) | TGI (EKVX NSCLC) | TGI (CAKI-1 renal) | TGI (IGROV1 ovarian) | TGI (LOX IMVI melanoma) | TGI (UACC-62 melanoma) | TGI (HCT-116 colon) | TGI (SK-OV-3 ovarian) | TGI (786-0 renal) | TGI (OVCAR-8 ovarian)

Cc1c2n(c3ccccc13)CC1C2N(C)OC1(C)C (stereo not given)
> 100 µM: TGI (OVCAR-4 ovarian) | TGI (SR leukemia) | TGI (COLO 205 colon) | TGI (EKVX NSCLC) | TGI (CAKI-1 renal) | TGI (UACC-62 melanoma) | TGI (HCT-116 colon) | TGI (SK-OV-3 ovarian) | TGI (786-0 renal) | TGI (OVCAR-8 ovarian)

CC(O[Si](C)(C)C(C)(C)C)[C@H](NC(=O)OCC(Cl)(Cl)Cl)C(=O)O (stereo not given in full)
> 100 µM: TGI (OVCAR-4 ovarian) | TGI (SR leukemia) | TGI (HL-60(TB) leukemia) | TGI (COLO 205 colon) | TGI (EKVX NSCLC) | TGI (IGROV1 ovarian) | TGI (UACC-62 melanoma) | TGI (PC-3 prostate) | TGI (HCT-116 colon) | TGI (SK-OV-3 ovarian) | TGI (786-0 renal) | TGI (OVCAR-8 ovarian)

CCCCc1ccc(Nc2nc(Cl)c3[nH]cnc3n2)cc1
29.1 µM: TGI (786-0 renal)
37.3 µM: TGI (OVCAR-8 ovarian)
31.9 µM: TGI (UACC-62 melanoma)
99.8 µM: TGI (SK-OV-3 ovarian)
26.6 µM: TGI (LOX IMVI melanoma)
54.1 µM: TGI (CAKI-1 renal)
71.8 µM: TGI (IGROV1 ovarian)
29.9 µM: TGI (HCT-116 colon)
43.1 µM: TGI (MDA-N)
43.4 µM: TGI (COLO 205 colon)
> 100 µM: TGI (OVCAR-4 ovarian) | TGI (SR leukemia) | TGI (HL-60(TB) leukemia) | TGI (EKVX NSCLC)

CNC(=O)N(CCC#N)CCN(CCN(C(=O)NC)c1ccccc1)C(=O)NC
> 100 µM: TGI (OVCAR-4 ovarian) | TGI (SR leukemia) | TGI (COLO 205 colon) | TGI (EKVX NSCLC) | TGI (CAKI-1 renal) | TGI (IGROV1 ovarian) | TGI (LOX IMVI melanoma) | TGI (MDA-N) | TGI (UACC-62 melanoma) | TGI (PC-3 prostate) | TGI (HCT-116 colon) | TGI (SK-OV-3 ovarian) | TGI (786-0 renal) | TGI (OVCAR-8 ovarian)

Clc1ccc2c(NCCNc3nc(-c4ccccc4)cc(-c4ccccc4)n3)ccnc2c1
3.33 µM: TGI (SK-OV-3 ovarian)
inactive: GI50 (UACC-62 melanoma) 1.85 µM | GI50 (PC-3 prostate) 1.88 µM | GI50 (HCT-116 colon) 1.76 µM | GI50 (SK-OV-3 ovarian) 1.75 µM | GI50 (OVCAR-8 ovarian) 2.07 µM
3.44 µM: TGI (PC-3 prostate)
3.37 µM: TGI (UACC-62 melanoma)
3.43 µM: TGI (HCT-116 colon)
4.3 µM: TGI (OVCAR-8 ovarian)

CCC(C)(C)NC1=C(NC(C)=O)C(=O)c2ccccc2C1=O
43 µM: TGI (HL-60(TB) leukemia)
> 75 µM: TGI (OVCAR-4 ovarian) | TGI (SR leukemia) | TGI (COLO 205 colon) | TGI (EKVX NSCLC) | TGI (IGROV1 ovarian) | TGI (LOX IMVI melanoma) | TGI (UACC-62 melanoma) | TGI (HCT-116 colon) | TGI (SK-OV-3 ovarian) | TGI (786-0 renal) | TGI (OVCAR-8 ovarian)

CC(=O)CN=C(C)NNc1ccc([N+](=O)[O-])cc1[N+](=O)[O-]
> 100 µM: TGI (OVCAR-4 ovarian) | TGI (SR leukemia) | TGI (COLO 205 colon) | TGI (EKVX NSCLC) | TGI (CAKI-1 renal) | TGI (IGROV1 ovarian) | TGI (LOX IMVI melanoma) | TGI (MDA-N) | TGI (UACC-62 melanoma) | TGI (PC-3 prostate) | TGI (HCT-116 colon) | TGI (SK-OV-3 ovarian) | TGI (786-0 renal) | TGI (OVCAR-8 ovarian)

CCN(CC)CC(C)(C)C(=O)/C=C/c1ccc(C)cc1
26.8 µM: TGI (SR leukemia)
24.1 µM: TGI (LOX IMVI melanoma)
16.9 µM: TGI (EKVX NSCLC)
23.2 µM: TGI (786-0 renal)
29.1 µM: TGI (CAKI-1 renal)
24.4 µM: TGI (OVCAR-4 ovarian)
60.6 µM: TGI (SK-OV-3 ovarian)
27.4 µM: TGI (HCT-116 colon)
31.8 µM: TGI (UACC-62 melanoma)
31.4 µM: TGI (OVCAR-8 ovarian)

Cc1cc2c3c(ccc4ncc(c43)CN2c2ccc(NS(C)(=O)=O)cc2)[nH]1
64.5 µM: TGI (CAKI-1 renal)
> 100 µM: TGI (OVCAR-4 ovarian) | TGI (HL-60(TB) leukemia) | TGI (COLO 205 colon) | TGI (EKVX NSCLC) | TGI (IGROV1 ovarian) | TGI (LOX IMVI melanoma) | TGI (MDA-N) | TGI (UACC-62 melanoma) | TGI (PC-3 prostate) | TGI (OVCAR-8 ovarian)
97.5 µM: TGI (SK-OV-3 ovarian)
23.5 µM: TGI (786-0 renal)
44.1 µM: TGI (HCT-116 colon)

c1ccc2cc3n[se]nc3cc2c1
> 100 µM: TGI (OVCAR-4 ovarian) | TGI (HL-60(TB) leukemia) | TGI (COLO 205 colon) | TGI (EKVX NSCLC) | TGI (CAKI-1 renal) | TGI (IGROV1 ovarian) | TGI (LOX IMVI melanoma) | TGI (UACC-62 melanoma) | TGI (SK-OV-3 ovarian) | TGI (OVCAR-8 ovarian)

Nc1nc(Nc2ccc(Cl)cc2)sc1C(=O)c1cc2ccccc2oc1=O
> 100 µM: TGI (OVCAR-4 ovarian) | TGI (HL-60(TB) leukemia) | TGI (COLO 205 colon) | TGI (IGROV1 ovarian) | TGI (LOX IMVI melanoma) | TGI (MDA-N) | TGI (UACC-62 melanoma) | TGI (PC-3 prostate) | TGI (HCT-116 colon) | TGI (SK-OV-3 ovarian) | TGI (786-0 renal)

CN1N=C(c2ccncc2)OC1c1ccc(Cl)c(Cl)c1 (stereo not given)
> 100 µM: TGI (OVCAR-4 ovarian) | TGI (HL-60(TB) leukemia) | TGI (COLO 205 colon) | TGI (EKVX NSCLC) | TGI (CAKI-1 renal) | TGI (IGROV1 ovarian) | TGI (LOX IMVI melanoma) | TGI (MDA-N) | TGI (UACC-62 melanoma) | TGI (PC-3 prostate) | TGI (HCT-116 colon) | TGI (SK-OV-3 ovarian) | TGI (786-0 renal) | TGI (OVCAR-8 ovarian)
